Counter-ions that a name gives are not always drawn.
Tested on: Abcd1− mice spinal cord
Assay: Mitochondrial depletion and bioenergetic failure in Abcd1− mice spinal cord
Assay type: in vivo
Settings: 12 months of age, DMF 100 mg/kg/day in chow for 4 months
Protocol: b) NRF2-dependent antioxidative genes (Hmox1, Nqo1 and Gst α 3) expression in WT (n=8), Abcd1^− (n=8) and Abcd1^−+DMF (n=8) mice spinal cord at 12 months of age. Gene expression levels were normalized relative to Rplp0. Quantification is represented as fold change to WT mice. c) Mitochondrial DNA (mtDNA) levels in WT (n=8), Abcd1^− (n=8) and Abcd1^−+DMF (n=8) mice spinal cord at 12 months of age. mtDNA content was measured by quantitative RT-PCR and expressed as the ratio of mtDNA (CytB levels) to nuclear DNA (nDNA, Cebpa levels). Quantification is depicted as fold change to WT mice. d) Sirt1, Pgc-1α, Nrf1 and Tfam expression was measured by quantitative RT-PCR in WT (n=8), Abcd1^− (n=8) and Abcd1^−+DMF (n=8) mice spinal cord at 12 months of age. Gene expression levels were normalized relative to Rplp0. Quantification is depicted as fold change to WT mice. e) ATP levels in WT (n=8), Abcd1^− (n=8) and Abcd1^−+DMF (n=8) mice spinal cord at 12 months of age. Quantification is represented as fold change to WT mice. Data are shown as mean±SD (*p<0.05, **p<0.01, ***p<0.001 after one-way ANOVA test followed by Tukey's post-hoc test; #p<0.05 after one-way ANOVA test followed by Dunnett's post-hoc test; p<0.05, p<0.01 after non-parametric Kruskal-Wallis' test).
Cages contained 3 to 5 animals.
We used two X-ALD mouse models in this study. We characterized the biochemical signs of adult X-ALD in Abcd1^− mice at 12 months of age. These mice show biochemical signs of pathology, including oxidative stress and energetic homeostasis impairment, before the first clinical signs of AMN-like pathology (axonopathy and locomotor impairment) appear at 20 months.
For biochemical analysis, we killed the mice and stored the tissues at −80° C. after snap-freezing them in liquid nitrogen. For histological analysis, spinal cord was harvested from 18-month-old mice after perfusing them with 4% paraformaldehyde (PFA; Sigma-Aldrich, Ref. 441244) in 0.1 M phosphate buffer pH 7.4. […]

COC(=O)/C=C/C(=O)OC [DMF, dimethyl fumarate]
normalized: mitochondrial DNA (mtDNA) levels (Abcd1− mouse spinal cord) | mitochondrial biogenesis genes mRNA expression (Sirt1, Pgc-1α, Nrf1, Tfam) (Abcd1− mouse spinal cord) | ATP levels (X-ALD (Abcd1−) mouse spinal cord)
